Assay [1] has as its system IL12-induced p-STAT4 in human PBMC. In words: IL-12 induced pSTAT4 in human PBMC. It counts as cell-based. To be noted: read-out: p-STAT4 IC50.
Description: Cells were seeded in a round bottom 96-well plate at the concentration of 200,000 cells/well. A 10-point dilution series of test compound (top dose 10 uM, 1:5 dilution) was added to the well using the liquid dispenser (Tecan D300e) and incubated for 1 hour at 37 C. Then human IL-12 recombinant protein (R&D Systems) was added to the well at the final concentration of 10 ng/ml and incubated for 15 minutes at 37 C. Cell lysates were prepared and analyzed by Phospho STAT4 (Tyr693) Kit (Meso Scale Discovery) following manufacturer's protocol.
For calculation of the inhibition rate, the relative pSTAT4 signal of each well=pSTAT4 signal of each well−the average pSTAT4 signal of baseline. The inhibition %=(the average pSTAT4 signal of IL-12 treatment wells−the relative of pSTAT4 signal in each compound containing well)/the average pSTAT4 signal of IL-12 treatment wells*100%
The target of a further assay is TYK2 (JH2 domain) (Homo sapiens (Human), UniProt P29597). Put plainly: TYK2 JH2 domain binding assay (DiscoverX KINOMEscan). As to conditions: 11-point 3-fold dilution, duplicate.
The subject of assay [2] is INFα induced pSTAT3 in human PBMC. Put plainly: INFα induced pSTAT3 in human PBMC. It counts as cell-based. As to conditions: read-out: p-STAT3 IC50. Here is the method:
Fresh Human PBMCs were resuspended in RPMI 1640 medium with 10% FBS. Cells were seeded in a round bottom 96-well plate at the concentration of 200,000 cells/well. A 10-point dilution series of test compound (top dose 10 uM, 1:5 dilution) was added to the well using the liquid dispenser (Tecan D300e) and incubated for 1 hour at 37 C. Then human INFα recombinant protein (R&D Systems) was added to the well at the final concentration of 5000 units/ml and incubated for 15 minutes at 37 C. Cell lysates were prepared and analyzed by Phospho STAT3 (Tyr705) cellular kit (Cisbio) or Phospho STAT5 (Tyr693) Kit (Meso Scale Discovery) following manufacturer's protocol.
For calculation of the inhibition rate, the relative pSTAT signal of each well=pSTAT signal of each well−the average pSTAT signal of baseline. The inhibition %=(the average pSTAT signal of INFα treatment wells−the relative of pSTAT signal in each compound containing well)/the average pSTAT signal of INFα treatment wells*100%
The curve was plotted as the inhibition % (y-axis) vs. compounds concentration (x-axis) and was fitted with log(inhibitor) vs. normalized response—Variable slope by GraphPad Prism7.0.

For 14 compounds, IC50 and Kd results are on record in US11053219B2, “Substituted pyridines as TYK2 inhibitors” (FronThera U.S. Pharmaceuticals LLC, priority 2018, dated 2021).

By IC50 is commonly meant the concentration that gives 50% inhibition. Broadly, the Kd is the free concentration of one partner at which half of the binding sites on the other are occupied at equilibrium, for simple one-to-one binding.

Where two headings read alike, the source gives them in different places.

Chain of TYK2 (JH2 domain) (P29597 589-875): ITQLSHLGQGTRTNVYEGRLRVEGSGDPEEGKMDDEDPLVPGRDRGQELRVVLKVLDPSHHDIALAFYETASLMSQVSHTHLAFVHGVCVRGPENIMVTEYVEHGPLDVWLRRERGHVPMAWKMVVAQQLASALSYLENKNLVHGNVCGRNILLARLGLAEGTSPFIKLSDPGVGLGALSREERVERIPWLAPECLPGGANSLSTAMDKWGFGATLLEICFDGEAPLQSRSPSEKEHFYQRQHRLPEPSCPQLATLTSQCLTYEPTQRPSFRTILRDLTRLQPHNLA

Turning to `[2H]C([2H])([2H])NC(=O)c1nnc(N2CCN(C3CC3)C2=O)cc1Nc1cccc(-c2ncn(C)n2)c1OC` [Example 5, 6-(3-cyclopropyl-2-oxo-imidazolidin-1-yl)-4-[2-methoxy-3-(1-methyl-1,2,4-triazol-3-yl)anilino]-N-(trideuteriomethyl)pyridazine-3-carboxamide], the IC50 was below 0.1 µM in assay [1] (human PBMC, IL-12 10 ng/ml) and 0.1 to 1 µM in assay [2] (human PBMC, INFα 5000 units/ml). Also, at TYK2 (JH2 domain), the Kd is at most 0.001 µM.
Turning to `[2H]C([2H])([2H])NC(=O)c1nnc(N2CCN(CC(F)F)C2=O)cc1Nc1cccc(-c2ncn(C)n2)c1OC` [Example 8, 6-[3-(2,2-difluoroethyl)-2-oxo-imidazolidin-1-yl]-4-[2-methoxy-3-(1-methyl-1,2,4-triazol-3-yl)anilino]-N-(trideuteriomethyl)pyridazine-3-carboxamide; 2,2,2-trifluoroacetic acid], the IC50 in assay [1] (Homo sapiens, PBMC) was below 0.1 µM; in assay [2] (Homo sapiens, PBMC), below 0.1 µM. Moreover, at TYK2 (JH2 domain), the Kd is at most 0.001 µM.
In the case of `[2H]C([2H])([2H])NC(=O)c1nnc(N2CCN(CCOC)C2=O)cc1Nc1cccc(-c2ncn(C)n2)c1OC` [Example 9, 6-[3-(2-methoxyethyl)-2-oxo-imidazolidin-1-yl]-4-[2-methoxy-3-(1-methyl-1,2,4-triazol-3-yl)anilino]-N-(trideuteriomethyl)pyridazine-3-carboxamide], the IC50 is below 0.1 µM in assay [1] (human PBMC, IL-12 10 ng/ml) and 0.1 to 1 µM in assay [2] (human PBMC, INFα 5000 units/ml). Besides, on TYK2 (JH2 domain), the Kd was at most 0.001 µM.
In the case of `[2H]C([2H])([2H])NC(=O)c1nnc(N2CCN(CC)C2=O)cc1Nc1cccc(-c2ncn(C)n2)c1OC` [Example 12, 6-(3-ethyl-2-oxo-imidazolidin-1-yl)-4-[2-methoxy-3-(1-methyl-1,2,4-triazol-3-yl)anilino]-N-(trideuteriomethyl)pyridazine-3-carboxamide], the IC50 in assay [1] (Homo sapiens, PBMC) is below 0.1 µM; in assay [2] (Homo sapiens, PBMC) it was below 0.1 µM. Further, the Kd on TYK2 (JH2 domain) is at most 0.001 µM.
In the case of `[2H]C([2H])([2H])NC(=O)c1c(Nc2cccc(-c3ncn(C)n3)c2OC)cc(NC(=O)C2CC2)nc1F` [Example 23], the IC50 in assay [1] (human PBMC, IL-12 10 ng/ml) is 0.1 to 1 µM; in assay [2] (human PBMC, INFα 5000 units/ml) it was 0.1 to 1 µM. Also, on TYK2 (JH2 domain), the Kd was at most 0.001 µM.
As for `COc1c(Nc2cc(NC(=O)C3CC3)nnc2C(C)=O)cccc1-c1ncn(C)n1` [Example 24], the IC50 in assay [1] (human PBMC, IL-12 10 ng/ml) is 0.1 to 1 µM; in assay [2] (human PBMC, INFα 5000 units/ml), 0.1 to 1 µM. Further, at TYK2 (JH2 domain), the Kd was in the range of 0.001 to 0.005 µM.
For the compound `CCC(=O)c1nnc(NC(=O)C2CC2)cc1Nc1cccc(-c2ncn(C)n2)c1OC` [Example 25], the IC50 in assay [1] (human PBMC, IL-12 10 ng/ml) fell in the range of 0.1 to 1 µM; in assay [2] (human PBMC, INFα 5000 units/ml), 0.1 to 1 µM. The compound further yielded a Kd on TYK2 (JH2 domain) of at most 0.001 µM.
With `COc1c(Nc2cc(NC(=O)C3CC3)nnc2C(=O)C2CC2)cccc1-c1ncn(C)n1` [Example 26], the IC50 was below 0.1 µM in assay [1] (human PBMC, IL-12 10 ng/ml) and 0.1 to 1 µM in assay [2] (human PBMC, INFα 5000 units/ml). The same compound yielded a Kd at TYK2 (JH2 domain) of at most 0.001 µM.
For `COc1c(Nc2cc(NC(=O)C3CC3)nc3ncn(C)c(=O)c23)cccc1-c1ncn(C)n1` [Example 39], in that order: 0.1 to 1 µM, 0.1 to 1 µM and 0.005 to 0.01 µM.
`[2H]C([2H])([2H])NC(=O)c1nnc(N/C(=N/O)C2CC2)cc1Nc1cccc(-c2ncn(C)n2)c1OC` [Example 40]: the IC50 in assay [1] (human PBMC, IL-12 10 ng/ml) is 0.1 to 1 µM; in assay [2] (human PBMC, INFα 5000 units/ml), 0.1 to 1 µM. This compound showed a Kd on TYK2 (JH2 domain) of at most 0.001 µM.
For the compound `COc1c(Nc2cc(NC(=O)C3CC3)nc3c2C2=NC(=O)CN2C3)cccc1-c1ncn(C)n1` [Example 41], the IC50 in assay [1] (human PBMC, IL-12 10 ng/ml) was in the range of 1 to 10 µM; in assay [2] (human PBMC, INFα 5000 units/ml) it was 1 to 10 µM. Moreover, the Kd on TYK2 (JH2 domain) lay in the range of 0.001 to 0.005 µM.
Turning to `[2H]C([2H])([2H])NC(=O)c1c(Nc2cccc(-c3nnn(C)n3)c2OC)cc(NC(=O)C2CC2)nc1F` [Example 42], the 50% inhibitory concentration (IC50) in assay [1] (human PBMC, IL-12 10 ng/ml) fell in the range of 0.1 to 1 µM; in assay [2] (human PBMC, INFα 5000 units/ml) it was 1 to 10 µM. The compound further yielded an equilibrium dissociation constant (Kd) at TYK2 (JH2 domain) of 0.001 to 0.005 µM.
On the same counts, the results for `COc1c(Nc2cc(NC(=O)C3CC3)nc3c2C(=O)NC3)cccc1-c1ncn(C)n1` [Example 43] are above 10 µM, 1 to 10 µM and 0.005 to 0.01 µM.
Regarding `COc1c(Nc2cc(NC(=O)C3CC3)nnc2C(=O)C(F)F)cccc1-c1ncn(C)n1` [Example 44], the IC50 in assay [1] (human PBMC, IL-12 10 ng/ml) lay within 0.1 to 1 µM; in assay [2] (human PBMC, INFα 5000 units/ml) it was 1 to 10 µM. In addition, the Kd at TYK2 (JH2 domain) was 0.001 to 0.005 µM.
